# According to patent publication KR20170021349A, “다양한 질병의 치료를 위한 jnk 신호 전달 경로의 세포 투과성 펩타이드 억제자의 새로운 용도” (자이겐 인플라메이션 리미티드, priority 2014, dated 2017):
# Experiments:
# [1] = test system: Lewis rats; assay: Endotoxin-induced uveitis (EIU), duration of action after subconjunctival injection; type: in vivo, rat; conditions: 20 μg/eye
# [2] = test system: Sprague-Dawley rats; assay: Bilateral renal ischemia reperfusion, histology; type: in vivo, rat
# [3] = test system: female Sprague-Dawley rats; assay: CYP-induced acute cystitis, intravenous treatment, visceral pain; type: in vivo, rat; conditions: 2 mg/kg i.v.
# [4] = test system: female Sprague-Dawley rats; assay: Cystometry in conscious rats with CYP-induced cystitis; type: in vivo, rat; conditions: 2 mg/kg i.v.; 30-60 min post-dose; P<0.01
# [5] = test system: primary mouse cortical neurons; assay: JNK activation in cortical neurons under H2O2 oxidative stress; type: cell-based; conditions: 5 μM pre-treatment; 1 mM H2O2 15 min
# [6] = Distribution of C14-labelled peptide, 72 h after s.c., i.v., i.p.; type: in vivo, mouse; conditions: 1 mg/kg, Fig. 25
# [7] = test system: murine T cells; assay: PMA & ionomycin-induced cytokine production in primary cells; type: cell-based, mouse; conditions: Fig. 28 D-E
# [8] = Previous open-label dose-escalation trial in post-surgery/post-trauma intraocular inflammation; type: in vivo, human; conditions: 45, 90, 450, 900 μg subconj., 20 patients
substance,measurement,setting,value
NH2-DQSRPVQPFLNLTTPRKPRPPRRRQRRKKRG-COOH (H-DQSRPVQPFLNLTTPRKPRPPRRRQRRKKRG-OH; also: D-amino acids (positions not given here)) [XG-102],reduction of clinical score,[1]; 1 day before induction,60%
same,reduction of leukocyte infiltration,[1]; 1 day before induction,48%
same,"clinical score, mean ± SEM (n=20)",[1]; 2 days before induction,1.8 ± 0.2
same,"clinical score, median",[1]; 2 days before induction,2.0
same,"leukocytes in aqueous humor, mean ± SEM (n=20)",[1]; 2 days before induction,1844 ± 232 세포/μL
same,"leukocytes in aqueous humor, median",[1]; 2 days before induction,1500 세포/μL
same,reduction of clinical score,[1]; 2 days before induction,55%
same,reduction of leukocyte infiltration,[1]; 2 days before induction,43%
same,"clinical score, mean ± SEM (n=20)",[1]; 7 days before induction,3.3 ± 0.2
same,"clinical score, median",[1]; 7 days before induction,3.0
same,"leukocytes in aqueous humor, mean ± SEM (n=20)",[1]; 7 days before induction,2878 ± 331 세포/μL
same,"leukocytes in aqueous humor, median",[1]; 7 days before induction,2473 세포/μL
same,reduction of clinical score,[1]; 7 days before induction,18%
same,reduction of leukocyte infiltration,[1]; 7 days before induction,11%
same,"clinical score, mean ± SEM (n=20)",[1]; 14 days before induction,2.9 ± 0.2
same,"clinical score, median",[1]; 14 days before induction,3.0
same,"leukocytes in aqueous humor, mean ± SEM (n=20)",[1]; 14 days before induction,976 ± 143 세포/μL
same,"leukocytes in aqueous humor, median",[1]; 14 days before induction,648 세포/μL
same,reduction of clinical score,[1]; 14 days before induction,28%
same,reduction of leukocyte infiltration,[1]; 14 days before induction,70%
same,"clinical score, mean ± SEM (n=20)",[1]; 21 days before induction,3.1 ±0.3
same,"clinical score, median",[1]; 21 days before induction,3.0
same,"leukocytes in aqueous humor, mean ± SEM (n=20)",[1]; 21 days before induction,1029 ± 164 세포/μL
same,"leukocytes in aqueous humor, median",[1]; 21 days before induction,1023 세포/μL
same,reduction of clinical score,[1]; 21 days before induction,23%
same,reduction of leukocyte infiltration,[1]; 21 days before induction,68%
same,"clinical score, mean ± SEM (n=20)",[1]; 28 days before induction,3.3 ± 0.2
same,"clinical score, median",[1]; 28 days before induction,4.0
same,"leukocytes in aqueous humor, mean ± SEM (n=20)",[1]; 28 days before induction,1260 ± 263 세포/μL
same,"leukocytes in aqueous humor, median",[1]; 28 days before induction,915 세포/μL
same,reduction of clinical score,[1]; 28 days before induction,18%
same,reduction of leukocyte infiltration,[1]; 28 days before induction,61%
same,"clinical score, median",[1]; day of induction,3.0
same,"leukocytes in aqueous humor, median",[1]; day of induction,2005 세포/μL
same,reduction of clinical score,[1]; day of induction,30%
same,reduction of leukocyte infiltration,[1]; day of induction,31%
same,"leukocytes in aqueous humor, mean ± SEM (n=20)","[1]; day of induction, vehicle 3236 ± 346",2226 ± 192 세포/μL
same,mean tubular epithelial degeneration/necrosis score (0-4),"[2]; 2 mg/kg i.v. 20 min after reperfusion, 24 h, IR/vehicle 3.45 ± 0.52",2.67 ± 0.65
same,animals with degeneration/necrosis score 2,"[2]; 2 mg/kg i.v., IR/vehicle 0/11",5/12
same,mean basophilic tubules score (0-4),"[2]; 2 mg/kg i.v., IR/vehicle 1.36 ± 0.67",1.33 ± 0.65
same,tubular cast score (0-4),"[2]; 2 mg/kg i.v., IR/vehicle 3.00 ± 0.00",2.50 ± 0.52
same,animals with degeneration/necrosis score 4,"[2]; 2 mg/kg i.v., IR/vehicle 5/11",1/12
same,total tubular score,"[2]; 2 mg/kg i.v., IR/vehicle 7.82 ± 0.98",6.50 ± 0.80
same,nociceptive threshold vs vehicle,"[3]; 24 h after CYP, p<0.01",현저하게 증가하였다
same,AUC 1-8 g (allodynia) vs vehicle,[3]; p<0.001,현저하게 감소되었다
same,AUC 8-60 g (hyperalgesia) vs vehicle,[3]; p<0.001,현저하게 감소되었다
same,nociceptive scores vs vehicle,[3]; p<0.001,현저하게 감소시켰다
same,intercontraction interval (ICI) and bladder capacity (BC) vs basal,[4],현저하게 증가시켰다
same,threshold pressure (ThP) vs basal,[4],현저한 감소
same,JNK activity (pJNK/JNK) induced by H2O2,[5],JNK 활성을 억제하였다
same,tissue accumulation,[6],"간, 비장 및 골수 대부분에서 XG-102 펩타이드의 축적"
same,"PMA & ionomycin-induced TNFa, IFNg production",[7],사이토카인 방출을 억제한다
same,safety and tolerability,[8],안정하고 내약성이 우수하다
